Results: patent US20250339405A1, “a-SYNUCLEIN AGGREGATE BINDING AGENT AND IMAGING METHOD” (National Institutes for quantum and Radiological Science …, priority 2019, published 2025)

What was measured:
[1] = biological target: T1, α-synuclein aggregate formed in the brain of the DLB patient (Homo sapiens, UniProt P37840); experiment: In vitro fluorescence microscope measurement, DLB patient brain sections; format: binding; conditions: 30 μM compound, 50% ethanol, 30 minutes, room temperature, amygdala sections
T1 construct: Postfixed fresh frozen sections of the amygdala tissue of the DLB patient; from tissue; host or cells: post-mortem human DLB amygdala, frozen sections
Excerpt: Postmortem human brains were obtained from autopsies carried out with respect to a dementia with Lewy bodies (DLB) and Alzheimer's disease (AD) patients.
A frozen DLB tissue was sliced with a thickness of 20 μm in a cryostat (HM560, Carl Zeiss).
Postfixed fresh frozen sections of the amygdala tissue of the DLB patient and formalin fixed, paraffin embedded sections of a deparaffinized middle frontal gyrus tissue of the AD patient were used. Thirty μM of each of the above compounds and brain sections were incubated in a 50% ethanol solution for 30 minutes at room temperature. The sections were then washed twice, i.e., washed with a 50% ethanol solution for 5 minutes and with ultrapure water for 3 minutes. After mounting the sections using a mounting medium (VECTASHIELD H-1000, Vector Laboratories), images of lesion-enriched areas on the sections were obtained using a fluorescence microscope (DM4000, Leica). Analysis software (Image J) was used to quantify the fluorescence of lesion-enriched and lesion-free (background) areas.

[2] = biological target: T2, α-synuclein lesions (Mus musculus, UniProt O55042); experiment: Ex vivo imaging of α-synuclein fibril-injected model mouse brain; format: in vivo
T2 construct: from tissue; host or cells: brain of C57BL/6 mice inoculated in the striatum with recombinant murine α-synuclein fibrils (made in E. coli)
Experimental: A model mouse at 6 weeks after the injection of the α-synuclein fiber solution was anesthetized with 1.5% (v/v) isoflurane in a manner similar to that described in “(Preparation of α-synuclein fibril-injected mouse model)” above, and C05-05 (1.66 mg/kg) or BF-227 (1.66 mg/kg) was intraperitoneally administered.
The brains were collected and frozen 90 minutes after the administration of C05-05 (or 120 minutes after the administration of BF-227), and frozen sections with the thickness of 20 μm were prepared in a cryostat (HM560). After mounting the sections using a mounting medium (VECTASHIELD H-1000), images of α-synuclein aggregate-enriched areas on the sections were obtained using a fluorescence microscope (DM4000).
Moreover, the same sections were immersed and fixed overnight in a phosphate buffer solution containing 4% paraformaldehyde. The brain after fixation was washed under running water and then treated with an autoclave for the antigen retrieval. Immunohistochemical staining with an anti-phosphorylated α-synuclein monoclonal antibody (pS129, abcam, ab59264) (1:1000) was carried out, and after mounting the sections using a mounting medium (VECTASHIELD H-1000), images of the same areas were obtained using the fluorescence microscope (DM4000). FIG. 7(a) contains images showing the case where C05-05 was administered, and FIG. 7(b) is images showing the case where BF-227 was administered.

[3] = biological target: T3, lesion composed of the phosphorylated α-synuclein (Mus musculus, UniProt O55042); experiment: In vitro fluorescence microscope measurement, α-synuclein fibril-injected mouse brain sections; format: binding; conditions: 30 μM, 20% ethanol, 30 minutes, room temperature
T3 construct: from tissue; host or cells: brain of C57BL/6 mice inoculated in the striatum with recombinant murine α-synuclein fibrils (made in E. coli)
Experimental: First, murine α-synuclein was expressed in and extracted from E. coli as a recombinant protein, and incubated in vitro to form an insoluble α-synuclein aggregate.
Note that the α-synuclein aggregate was inoculated into the striatum of the mouse with the following manner. First, hair on the head of 9-week-old C57BL/6 male mouse anesthetized with 1.5% (v/v) isoflurane was removed, and the scalp was disinfected with isodine, followed by application of xylocaine and incision in the scalp to expose the skull. […]
The brain of the α-synuclein fibril-injected mouse was extracted, sectioned, and analyzed by fluorescent staining. […] After mounting the sections using a mounting medium (VECTASHIELD H-1000), images of α-synuclein aggregate-enriched areas on the sections were obtained using a fluorescence microscope (DM4000). […] Immunohistochemical staining with an anti-phosphorylated α-synuclein monoclonal antibody (pS129, abcam, ab59264) (1:1000) was carried out, and after mounting the sections using a mounting medium (VECTASHIELD H-1000), images of the same areas were obtained using the fluorescence microscope (DM4000).

[4] = biological target: T2, α-synuclein lesions; experiment: In vivo two-photon laser scanning fluorescence microscopy of α-synuclein fibril-injected model mouse
Experimental: Note that the α-synuclein aggregate was inoculated into the striatum of the mouse with the following manner. First, hair on the head of 9-week-old C57BL/6 male mouse anesthetized with 1.5% (v/v) isoflurane was removed, and the scalp was disinfected with isodine, followed by application of xylocaine and incision in the scalp to expose the skull. Then, a hole was drilled in the skull at a position of 0.05 mm posterior to the bregma and 2 mm lateral to the midline, and 3 μl of an α-synuclein fiber solution (murine α-synuclein fiber (4 mg/ml) in saline) was injected into a position […] ventral to the brain surface using a glass pipette, and then the scalp was returned and sutured.
A model mouse was anesthetized with 1.5% (v/v) isoflurane 6 weeks after the injection of the α-synuclein fiber solution, and a cranial window was provided according to the Seylaz-Tomita method (Tomita et al. J Cereb Blood Flow Metab 25, 858-67, 2005). The mouse was anesthetized with 1.5% (v/v) isoflurane 2 weeks after the generation of the cranial window, and 50 μl of a solution of DMSO/physiological saline water=1:1 containing 0.05% of C05-05 or PBB3 was administered via the tail vein. The mouse was fixed under a two-photon laser fluorescence microscope 90 minutes after administration of C05-05 or 30 minutes after administration of PBB3, and 100 μl of a saline solution containing 5 mM of Sulforhodamine 101 was administered intraperitoneally, followed by intravital two-photon fluorescence imaging at an excitation wavelength of 900 nm. The detection wavelengths for C05-05 and PBB3 were set at 500 nm to 550 nm, and detection wavelengths for Sulforhodamine 101 were set at 573 nm to 648 nm.

[5] = biological target: T4, A53T mutant human α-synuclein (Homo sapiens, UniProt P37840, A53T); experiment: Inhibitory effect on α-synuclein aggregation (seeded, sarkosyl-insoluble fraction, CBB staining); format: biochemical; conditions: 37° C., 1 day
T4 construct: made in house; host or cells: E. coli
Experimental: First, A53T mutant human α-synuclein was expressed in and extracted from E. coli as a recombinant protein, and incubated in vitro to prepare α-synuclein aggregate seeds. To 0.02 μg of the α-synuclein aggregate seeds, C05-05 (in DMSO solution) was added at a final concentration of 20 μM, or 200 μM and stirred. An experiment in which only DMSO was added was conducted as a control experiment. These were suspended with 50 μL of A53T mutant human-synuclein monomer solution at a concentration of 1 mg/ml and then shaken at 37° C. for 1 day. Ten μL of the suspension was mixed with 90 μL of 1% sarkosyl and ultracentrifuged at 100 Krpm for 20 minutes, and a resulting precipitate was subjected to electrophoresis, followed by CBB staining of the gel. Images of the gels were obtained using an imager, and quantification of bands was carried out using analysis software (Image J).

CNc1ccc(C#C/C=C/c2nc3ccc(OCC(O)CF)cc3s2)cn1 (stereo not shown) [C05-05, (E)-1-fluoro-3-(2-(4-(6-(methylamino)pyridin-3-yl)but-1-en-3-ynyl)benzo[d]thiazol-6-yloxy)propan-2-ol]
binding to the α-synuclein aggregate formed in the brain of the DLB patient, reactivity relative to PBB3 [1]: reactivity equal to or greater than that of PBB3 | entry into the brain (ex vivo imaging) ([2]; 1.66 mg/kg, model mouse): entered the brain | detection of α-synuclein lesions by ex vivo imaging ([2]; 1.66 mg/kg, brains collected 90 minutes after C05-05 or 120 minutes after BF-227): bound to individual α-synuclein lesions | contrast in detecting lesions relative to BF-227 ([2]; ex vivo imaging): higher contrast than BF-227 | binding to phosphorylated α-synuclein lesion (co-staining with pS129 antibody) [3]: binds to the lesion composed of the phosphorylated α-synuclein | contrast in detecting lesions relative to PBB3 ([4]; intravital two-photon imaging): higher contrast than PBB3 | detection of α-synuclein lesions by intravital two-photon fluorescence imaging ([4]; tail vein, 50 μl of 0.05% solution, 90 minutes after C05-05 or 30 minutes after PBB3): bound to individual α-synuclein lesions | entry into the brain after intravenous injection ([4]; tail vein, model mouse): entered the brain of the living body | reduction of formation of insoluble α-synuclein aggregate compared with control experiment (DMSO) ([5]; final concentration 20 μM): approximately 20% | reduction of formation of insoluble α-synuclein aggregate compared with control experiment (DMSO) ([5]; final concentration 200 μM): approximately 60%
